{
  "source": "ChEMBL document CHEMBL1148034",
  "about": "“On the structures of crambescins B and C1” (J Nat Prod, 1993)",
  "tested_on": "L1210",
  "experiment": "Cytotoxicity against mouse L1210 cells after 72 hrs",
  "assay_type": "functional, cell-based",
  "conditions": "L1210, 72 h",
  "data": [
    {"smiles": "CCCCCCCCC[C@H]1NC(N)=N[C@@]2(CCCO2)[C@H]1C(=O)OCCCCCCCNC(=N)N", "note": "[CRAMBESCIN B]", "values": [
      {"measurement": "IC50", "value": 1, "unit": "µg/mL"}
    ]}
  ]
}
